# In patent US20220380761A1, “ORAL DELIVERY OF OLIGONUCLEOTIDES” (CiVi Biopharma, Inc., priority 2021, published 2022):
# l = locked nucleic acid (LNA); d = 2'-deoxy (DNA)
# Key:
# [1] = Oral capsule PK study of an oligo against Factor VII, with or without GalNAc, using 5-CNAC as carrier; format: in vivo, Cynomolgus monkey
# Experimental: Study outline: Dry blended capsules (20 mg Factor FVII with or without GalNac/200 mg 5-CNAC) were manufactured from uniform dry blended formulations, that were filled into enterically coated Size 0, hard shell gelatin capsules. A total of 10 Cynomolgus monkeys (5 males and 5 females) were each administered a single capsule of either oligo by oral gavage, and blood samples for PK analysis were drawn pre-dose and 0.5, 1.5, 3 and 5 hours post-dosing.
# PCSK9 = PCSK9 change from baseline after daily oral CIVI 008/SNAC capsules for 42 days; format: in vivo, Cynomolgus monkey; conditions: control animals, 20 mg CIVI 008 capsules without SNAC, daily x 42
# Text: (§1) Clinical chemistry, PCSK9 and lipids: urea nitrogen, creatinine, total protein, albumin, globulin, albumin:globulin ratio, total bilirubin, aspartate aminotransferase, alanine aminotransferase, alkaline phosphatase, gamma glutamyltransferase, creatine kinase, calcium, inorganic phosphorus, sodium, potassium, chloride, high density lipoproteins, low density lipoprotein, very low density lipoprotein, total cholesterol, triglycerides.
# plasma LDL-cholesterol = experiment: Plasma LDL cholesterol change from baseline after daily oral CIVI 008/SNAC capsules; format: in vivo, Cynomolgus monkey
# Text: as §1
# [2] = Repeat-dose toxicity of CIVI 008 formulated with SNAC (GLP); format: in vivo, Cynomolgus monkey
# [3] = Oral capsule toxicokinetic study of CIVI 008 using 5-CNAC as carrier; format: in vivo, Cynomolgus monkey; conditions: for AUC with increasing dose of CIVI 008 / Cmax with increasing dose of CIVI 008: constant dose of 5-CNAC
# Text: The objectives of this study were to determine the ability of 5-CNAC [Disodium N-(5-Chorosalicyloyl)-8-aminocaprylate] to facilitate oral uptake of CIVI 008 and to determine the manufacture method and dosing paradigm of CIVI 008/5-CNAC capsules that provide the most efficient oral uptake of CIVI 008 when administered to Cynomolgus monkeys of Mauritian origin.
# Study outline: A total of 10 Cynomolgus monkeys (5 males and 5 females) were each dosed with 2 group A capsules on Monday and Wednesday in week 1, followed by 4 days of dosing holiday. This Monday and Wednesday dosing scheme was continued in weeks 2, 3, 5, 6, 7, 8, 13, 14, 15 and 17 using 2 group B-capsules per dose occasion in week 2, and 1 capsule of groups C to K per dose occasion in their respective weeks. During the dosing period, blood samples for PK analysis were drawn pre-dose and 0.5, 1.5, 3 and 5 hours post-dosing on Mondays and Wednesdays. Samples for clinical chemistry and hematology (see example 1) were taken pre-study and end of study.
# [4] = Half-life of CIVI 008 in the liver; format: in vivo, non-human primates; conditions: expected after 7-weeks of once daily dosing
# [5] = cynomolgus monkey, in vivo, po
# Experimental: (§2) The objectives of this study were to evaluate the toxicity and reversibility of CIVI 008 and to determine the pharmacology, plasma exposure and target organ accumulation of CIVI 008 when administered daily by oral capsule to the Cynomolgus monkey of Mauritian origin for 42 days compared to administration by the subcutaneous route administered once every two weeks (investigated previously).
# (§3) Oral Capsule: Capsules containing CIVI 008 (10 mg)/SNAC (100 mg) were manufactured as uniform dry blend formulations, that were filled into Size 4 hard shell gelatin capsules that were enterically coated post fill.
# [6] = cynomolgus monkey, in vivo
# Experimental: as §2, §3
# [7] = Oral capsule PK study of CIVI 008 without GalNAc using 5-CNAC as carrier; format: in vivo, Cynomolgus monkey; conditions: single oral capsule 20 mg/200 mg 5-CNAC
# Text: As shown in previous Examples 1 and 3, orally dosed CIVI 008 with GalNAc is rapidly internalized in the liver by the GalNAc receptor, with very little CIVI 008 escaping into general circulation at doses below that required for saturation of the GalNAc receptor. In many instances the objective is to target genes that are expressed in organs other than the liver. […] The objective of this study was to determine the systemic exposure of orally administered CIVI 008 without the GalNAc conjugate, and to compare the exposure to that of a similar oral dose of CIVI 008 with GalNAc.
# Study outline: Dry blended capsules (20 mg CIVI 008 without GalNAc/200 mg 5-CNAC) were manufactured from uniform dry blended formulations, that were filled into enterically coated Size 0, hard shell gelatin capsules. A total of 10 Cynomolgus monkeys (5 males and 5 females) were each administered a single capsule by oral gavage, and blood samples for PK analysis were drawn pre-dose and 0.5, 1.5, 3 and 5 hours post-dosing.
# plasma LDL = experiment: Plasma LDL after once-daily oral CIVI 008/5-CNAC capsule for 49 days; format: in vivo, Cynomolgus monkey; conditions: 5-CNAC vs SNAC
# Experimental: The objectives of this study were to determine the ability of 5-CNAC [disodium N-(5-chorosalicyloyl)-8-aminocaprylate] to reduce plasma PCSK9 when dosed once daily for 7 weeks. The half-life of CIVI 008 in the liver of non-human primates is between 2 to 3 weeks, so after 7-weeks of dosing liver concentrations are expected to reach >80% of its steady state level.
# Study outline: Dry blended capsules (20 mg CIVI 008/200 mg 5-CNAC) were manufactured from uniform dry blended formulations, that were filled into enterically coated Size 0, hard shell gelatin capsules. A total of 10 Cynomolgus monkeys (5 males and 5 females) were each administered a single capsule by oral gavage once daily for 49 days. […] During the dosing period, blood samples for PK analysis were drawn pre-dose and 0.5, 1.5, 3 and 5 hours post-dosing at study start and at day 49. Blood samples for PCSK9 and lipid analysis were drawn on week −2 and −1 pre-study, pre-dose on Day 1 and weekly thereafter for the duration of the study. Samples for clinical chemistry, coagulation and hematology were taken on week −2 and −1 pre-study, and on Day 22 and 49.
# [8] = single oral capsule 20 mg/200 mg 5-CNAC
# [9] = CIVI 008 with 5-CNAC capsule, stated as specific aspect
# [10] = dose range 5 mg to 30 mg, 200 mg 5-CNAC
molecule,measurement,setting,value
"unconjugated Factor FVII oligo: 13 nt LNA gapmer antisense oligo against Factor VII, SEQ ID NO: 158, without GalNAc moiety (antisense GCACCACGGTCCA; sugars from the 5' end l2 d8 l3, all phosphorothioate, methylation of C not given here)",AUC relative to GalNac conjugated Factor FVII oligo,[1]; [8],~3.5 fold
same,Cmax relative to GalNac conjugated Factor FVII oligo,[1]; [8],~3.5 fold
"GalNac conjugated Factor FVII oligo: 13 nt LNA gapmer antisense oligo against Factor VII, SEQ ID NO: 158, with GalNAc moiety (antisense GCACCACGGTCCA; sugars from the 5' end l2 d8 l3, all phosphorothioate, methylation of C not given here; GalNAc conjugate attached, further chemistry not fully specified)",species found in plasma samples,[1]; 0.5 hr samples,parent compound
same,species found in plasma samples,[1]; 1.5 hr samples,mixture of parent compound and loss of carbohydrate moiety
same,species found in plasma samples,[1]; 3 hr samples,progressive loss of carbohydrate moiety
same,species found in plasma samples,[1]; 5 hr samples,progressive loss of carbohydrate moiety
"cepadacursen (AATGCTACAAAACCCA; LNA gapmer with GalNAc conjugate, pattern not given here) [CIVI 008]",mean PCSK9 reductions,PCSK9,comparatively small
same,LDL-c reductions,"plasma LDL-cholesterol; control animals, 20 mg CIVI 008 capsules without SNAC, throughout the study",fluctuated around baseline values
same,LDL levels at the end of recovery,plasma LDL-cholesterol; end of recovery,had yet to fully return to baseline
same,"LDL levels at the end of dosing, persistence",plasma LDL-cholesterol; recovery period after 42 days oral dosing with SNAC,maintained for two weeks post-dosing
same,"histopathological changes in intestinal tract (duodenum, jejunum, ileum and colon)",[2]; QD oral dosing for 42 days,no local histopathological changes
same,macroscopic or microscopic findings suggesting local or systemic effects,[2]; end of dosing and end of recovery,no macroscopic or microscopic findings
same,organ weight changes,[2]; following oral capsule administration,no organ weight changes
same,AUC0-5 with 5-CNAC carrier compared to similar dose with SNAC carrier,[3]; 5-CNAC vs SNAC (Example 1),increase
same,Cmax with 5-CNAC carrier compared to similar dose with SNAC carrier,[3]; 5-CNAC vs SNAC (Example 1),increase
same,increase of the mean AUC0-50 with respect to corresponding composition comprising SNAC instead of 5-CNAC,[3]; [9],about 80%
same,increase of the mean Cmax with respect to corresponding composition comprising SNAC instead of 5-CNAC,[3]; [9],about 110%
same,AUC with increasing dose of CIVI 008,[3]; dose above 25 mg,more than dose proportional increases
same,Cmax with increasing dose of CIVI 008,[3]; dose above 25 mg,more than dose proportional increases
same,AUC with increasing dose of CIVI 008,[3]; doses up to 25 mg,dose proportionally up to 25 mg
same,Cmax with increasing dose of CIVI 008,[3]; doses up to 25 mg,dose proportionally up to 25 mg
same,"AUC profiles, freeze-dried vs dry blended capsules",[3]; [10],very similar
same,"Cmax profiles, freeze-dried vs dry blended capsules",[3]; [10],very similar
same,liver concentrations as share of steady state level,[4],> 80%
same,form of CIVI 008 detected in plasma (HPLC peak),[5],mixture of parent compound and metabolites
same,form of CIVI 008 detected in plasma (HPLC retention time),[5],absorbed intact from the gut
same,mean Tmax,[5],≤ 30 min
same,"liver concentrations, difference between the SQ and PO arms",[6],approximately one
"CIVI 008 without GalNAc: Unconjugated form of CIVI 008, 16 nt LNA gapmer, SEQ ID NO: 134, without GalNAc moiety (AATGCTACAAAACCCA; LNA gapmer stated, pattern not given here)",AUC relative to similar dose of CIVI 008 with GalNac,[7],~8 fold
same,Cmax relative to similar dose of CIVI 008 with GalNac,[7],~8 fold
same,concentrations in the plasma,[7],measurable concentrations
same,plasma profile compared to CIVI 008 with GalNAc,[7],very similar
"O=C(O)CCCCCCCNC(=O)c1cc(Cl)ccc1O [5-CNAC, N-(5-chlorosalicyloyl)-8-aminocaprylic acid]",efficiency of carrier in facilitating oral uptake of CIVI 008,[3]; 5-CNAC vs SNAC,more efficient of the two carriers
same,efficiency in facilitating oral uptake of CIVI 008,plasma LDL,substantially more efficient than SNAC
